This note sets out measurements from US20100317711A1, “STEM-LIKE CELLS AND METHOD FOR REPROGRAMMING ADULT MAMMALIAN SOMATIC CELLS” (GLIAMED, INC., priority 2009, published 2010).

Assay [1] has as its system IGF2 expression. Kind of assay: cDNA array analysis of gene expression after initiating reprogramming with GM1485. The assay is classed as cell-based, human. The note with it: 48 hours after initiating reprogramming, GM1485 versus vehicle treated cells. The protocol: It has previously been shown that RIL treatment alters gene expression and that the biologic effects of these compounds are dependent upon cell-cell signaling. Included among these changes are alterations in the secretion of soluble factors (Lowry W E et al. 2008, Proc Natl Acad Sci USA 105, 2883-2888). To begin to explore what changes in gene expression might play a role GM1485-mediated iPS induction, RNA for cDNA array analysis was harvested from GM1485 and vehicle treated cells 48 hours after initiating reprogramming with GM1485.

The subject of assay [2] is human keratinocytes. Briefly: In vitro treatment of human keratinocytes with GM1485 with or without rhIGF2 (Oct4, Sox2). The assay is classed as cell-based.
The subject of assay [3] is adult rats. Briefly: Cardiac ischemic injury (left anterior descending artery ligation) in adult rats. It is filed as in vivo, rat. The settings on record: 5 mg/kg daily intraperitoneal, 30 days after infarction. The protocol: Adult rats underwent thoracotomy, the heart was isolated, the left anterior descending artery was identified and ligated at its branch point from the left circumflex artery, causing a massive infarction of the left ventricle. The chest was closed, lungs reinflated and the skin closed. The animals began a 30 day regimen of daily intraperitoneal injections of either GM1485 at 5 mg/kg or the saline vehicle in which it was dissolved. On the 30th day after infarction the animals were sacrificed, the hearts harvested, fixed and cryosectioned. […] The histology of the vehicle treated tissue is consistent with an extensive myocardial infarction. […] FIG. 5 is a 2×2 matrix of photomicrographs of cardiac tissue 30 days after infarction and treatment with either vehicle in the top two slides or GM1485 in the bottom two slides. The left upper and lower sections were stained with an αOct4 antiserum and the right upper and lower sections were stained with αSox2 (mAb R&D Systems). Only the GM1485 treated cardiac tissue expresses Oct4 and/or Sox2.

In assay [4] the test system is Adult, facial skin-derived human fibroblasts. Kind of assay: IGF2 blockade during GM1485-mediated iPS induction and neural re-differentiation of human fibroblasts. It is filed as cell-based. The protocol: To test the role of IGF2 in GM1485-mediated iPS induction, an α-IGF2 blocking antibody was included at the onset of induction and maintained in culture for three days.
Adult, facial skin-derived human fibroblasts were cultured in the presence of 100 μM GM1485 in chemically defined medium for 72 hours with (b) or without (a) 40 ng/ml mAb IGF2, a neutralizing antibody (Abcam, Inc.). One set of cells was fixed and stained with rabbit αOct4 (a and b). IGF2 signaling is required of the reprogramming from somatic cells to iPS cells. On the chance that the cells maintained plasticity, cells were continued in culture, but they were switched to culture conditions under which ES cells differentiate along a neural pathway. In specific, the cells were rinsed in PBS and cultured with chemically defined medium supplemented with rhFGF2, 10 ng/ml for an additional 72 hours, after which the cells were rinsed in PBS and the culture medium was replaced with chemically defined medium supplemented with rhEGF, 20 ng/ml. After seven days the cells were rinsed in PBS, fixed in 4% paraformaldehyde in PBS, and processed for immunocytochemistry with TuJ1, a mAb that recognizes neuron-specific βIII-Tubulin.

Assay [5] concerns normal human dermal fibroblasts (NHDF). Kind of assay: Oct4 immunostaining of normal human dermal fibroblasts cultured with GM1485. The assay is classed as cell-based. The settings on record: GM1485 100 μM in serum free medium, 72 hours, versus vehicle. As for the experimental part: The fibroblasts were harvested from a skin sample was taken from the face of a human cadaver. The skin sample was cut into small fragments and digested with dispase overnight (4° C.). Thereafter the epidermis was separated from the dermis. The dermis fragments were further digested with collagenase for approximately 1 h at 37° C., and then diluted with culture medium and filtered to obtain a suspension of dermal cells. The dermal cells were next purified via magnetic bead separation to yield normal human dermal fibroblasts (“NHDFs”). Second passage normal human dermal fibroblasts (NHDF) were seeded onto poly-D-lysine coated coverslips within wells of 24-well plates, at a density of 4,000 cells/well and cultured overnight in NHDF growth medium from PromoCell GmbH (NHDF GM) consisting of: The NHDF GM was aspirated, the wells were rinsed twice with Hank's balanced salt solution (HBSS), and 400 μL of serum free medium (SFM) supplemented with GM1485 at a final concentration of 100 μM or the vehicle the drug vehicle (SFM). […]

The subject of assay [6] is murine fibroblasts, 3T3 cells. Kind of assay: Oct4 immunostaining of murine fibroblasts (3T3 cells) cultured with GM1485. The assay is classed as cell-based. The settings on record: GM1485 versus vehicle, no neural induction. As for the experimental part:
In another experiment, the murine fibroblasts, 3T3 cells were cultured in accordance with the protocol described, supra., for Example 1, except that they were not entered into a neural induction environment. Rather, the murine fibroblasts were fixed and stained with rabbit αOct4 antibody. The photomicrographs in FIG. 3 were taken using bright field microscopy using a 20× objective, except the inset, which is a 20× phase contrast photomicrograph of the same microscopic field into which it is set. The arrows point to the corresponding nuclei in the bright field and phase micrographs of the vehicle treated murine fibroblasts. Only the GM1485 treated murine fibroblasts express Oct4.

The subject of assay [7] is human fibroblasts. Briefly: Reprogramming of GM1485-treated human fibroblasts under neural inducing conditions (GFAP, TuJ1 staining). The assay is classed as cell-based. The settings on record: GM1485 100 μM, then FGF2 72 hours and rhEGF 7 days. The protocol: On day one of this experiment, the human fibroblasts, were plated, grown overnight as described above and then changed to DMEM supplemented with 10% heat inactivated FCS, 1% DMEM non-essential amino acids (Gibco), penicillin/streptomycin/glutamine (Gemini Bioproducts) and amphotericin B with or without GM1485 for 1 day, and reduced the concentration of serum over an 16 h period until the serum was absent, however the concentration of GM1485 was maintained at 100 μM throughout. The cells were maintained in SFM+/−GM1485 and 10 ng/mL FGF2 for 72 hours. On day 4 of the experiment, the culture environment was changed to 0.5 mL of a SFM without FGF2, but with rhEGF at 20 ng/ml. The cells were maintained in SFM supplemented with 20 ng/ml rhEGF for an additional 7 days. On the 11th day all the cells were fixed by aspirating the medium from the wells and replacing it with 0.5 mL/well of 4% paraformaldehyde in phosphate buffered saline (“PBS”) for 15 minutes at room temperature. Thereafter, the cells were briefly rinsed with PBS at room temperature, then washed with PBS at room temperature in three cycles of 5 minutes each. […] FIG. 2 is comprised of a set of 4 fluorescence photomicrographs, shown in inverted mode to allow full visualization in grayscale. […]

Take `CCC(C)(C)C(=O)C(=O)N1CCC[C@H]1C(=O)O` [GM1485, (2S)-1-(3,3-dimethyl-1,2-dioxopentyl)-2-pyrrolidinecarboxylic acid]: in assay [1], the IGF2 expression increase is given as 550% and the “number of genes upregulated by 2 fold or more” value is given as “Over 100”. Also, the iPS induction result in assay [2] (GM1485 alone, in vitro) is reported as “has not previously resulted in iPS induction”. Further, the “Oct4 and Sox2 expression” value in assay [2] (GM1485 with rhIGF2 included in cultures) was “upregulate Oct4 and Sox2 with the same kinetics as treated fibroblasts”. Besides, in assay [3] (versus saline vehicle), the “histology of heart tissue (H&E stained section)” value is “consistent with normal myocardium”. Besides, in assay [3] (versus vehicle), the “Oct4 and Sox2 expression in cardiac tissue” value is “Oct4 and Sox2 are upregulated”. The “differentiation to neuronal cells (TuJ1, βIII-Tubulin)” value in assay [4] (100 μM GM1485 72 hours without IGF2 blockade, then rhFGF2 72 hours, rhEGF seven days) is on record as “differentiated to neuronal cells”. Moreover, in assay [4] (100 μM GM1485, 72 hours, without IGF2 blockade), the “reprogramming to iPS cells (rabbit αOct4 staining)” value was “reprogrammed”. In addition, the “Oct4 expression (anti-OCT 3/4 immunostaining)” value in assay [5] is given as “upregulation of Oct4”. Further, the “Oct4 expression (rabbit αOct4 staining)” value in assay [6] is given as “express Oct4”. The “reprogramming of fibroblasts to neurons or astrocytes (GFAP, TuJ1)” value in assay [7] is given as “acquire the ability to be reprogrammed to an alternative cell fate”.
